Assay results reported in patent US11642332B2, “(2R,4R)-5-(5′-chloro-2′-fluorobiphenyl-4-yl)-2-hydroxy-4-[(5-methyloxazole-2-carbonyl)amino]pentanoic acid” (THERAVANCE BIOPHARMA R&D IP, LLC, priority 2015, dated 2023).
Read-outs that look alike come from different tables or passages of the source.

Experiments:
[1] = IV/PO pharmacokinetic study of Compound 1 in monkeys; type: in vivo; details: male, cynomolgus monkey, plasma, 1 mg/kg; for AUC(0-t): read-out: AUClast Mean
Procedure: A monkey PK study was performed with an appropriate mass of compound 1 in volume of vehicle (e.g., 5% sodium bicarbonate, 5% dextrose in H2O, pH 7.4, for oral and PEG200:EtOH:Water (40:10:50), pH 7.0, filtered through a […] PDVF syringe for IV) such that the final concentration was dosed at 0.5 mL/kg (IV) or 2.0 mL/kg (PO).
Male cynomologus monkeys (3 per route) housed at Xenometrics (Stilwell, Kans.) received an IV or PO dose of compound 1 at 1 mg/kg. Animals administered IV doses had access to food ad libitum and those administered PO doses were fasted overnight and received food approximately 4 hours after dose administration. Blood samples were collected from each animal at each time point (pre-dose, 0.083 hour, 0.25 hour, 0.5 hour, 1 hour, 2 hours, 4 hours, 6 hours, 8 hours, 12 hours, and 24 hours) via the cephalic, femoral, or sphenous vein through 48 hours. All samples were collected into K2EDTA tubes and placed on ice. Samples were processed to plasma by centrifugation (3200 rpm, 10 minutes, 5° C.), and acidified with a final concentration of 2% acetic acid. Aliquots of plasma were transferred to a 96-well plate tubes and stored frozen (−70° C.) prior to bioanalysis. Plasma concentrations of compound 1 were determined by LC/MS/MS. Plasma study samples were vortexed and placed in a 96-well plate. The samples were extracted with 200 μL of 0.2% formic acid in acetonitrile with an internal standard. The extract was centrifuged for 10 minutes at 3700 RPM and supernatant was mixed with 0.2% formic acid in water. Samples (15 μL) were injected on a Thermo (C18 50×2.1 mm) column with a flow rate of 0.3 mL/min. […] Pharmacokinetic parameters of compound 1 were determined by non-compartmental analysis (Model 201 and Model 200 for IV and PO administration, respectively) using Phoenix WinNonlin Version 6.3 (Certara, Sunnyvale, Calif.) and using individual plasma concentration time profiles from 3 animals.
Plasma clearance was determined from the intravenous arm of the study, and represents the rate at which plasma is cleared of drug. […]

[2] = target: T1, human neprilysin (EC 3.4.24.11; NEP) (Homo sapiens, UniProt P08473); test: In vitro assay for the quantitation of inhibitor potency at human NEP; type: biochemical; details: recombinant human NEP, fluorogenic peptide substrate 10 μM, 37° C.; read-out: pKi at human NEP (converted)
T1 construct: purchased R&D Systems 1182-ZN
Procedure: The inhibitory activity at human neprilysin (EC 3.4.24.11; NEP) was determined as follows.
Recombinant human NEP was obtained commercially (R&D Systems, Minneapolis, Minn., catalog number 1182-ZN). The fluorogenic peptide substrate Mca-D-Arg-Arg-Leu-Dap-(Dnp)-OH (Medeiros et al. (1997) Braz. J. Med. Biol. Res. 30:1157-62; Anaspec, San Jose, Calif.) was used.
The assay was performed in 384-well white opaque plates at 37° C. using the fluorogenic peptide substrate at a concentration of 10 μM in Assay Buffer (50 mM HEPES, pH 7.5, 100 mM NaCl, 0.01% polyethylene glycol sorbitan monolaurate (Tween-20), 10 μM ZnSO4).
Test compounds were assayed over the range of concentrations from 10 μM to 20 pM. Test compounds were added to the enzyme and incubated for 30 minute at 37° C. prior to initiating the reaction by the addition of substrate. Reactions were terminated after 20 minutes of incubation at 37° C. by the addition of glacial acetic acid to a final concentration of 3.6% (v/v).
Plates were read on a fluorometer with excitation and emission wavelengths set to […]. Inhibition constants were obtained by nonlinear regression of the data using the equation (GraphPad Software, Inc., San Diego, Calif.): v=v0/[1+(I/K′)] where v is the reaction rate, v0 is the uninhibited reaction rate, I is the inhibitor concentration and K′ is the apparent inhibition constant.
The compounds were tested in this assay and found to have pKi values at human NEP as follows.

T1 sequence (P08473 52-750 limits assumed): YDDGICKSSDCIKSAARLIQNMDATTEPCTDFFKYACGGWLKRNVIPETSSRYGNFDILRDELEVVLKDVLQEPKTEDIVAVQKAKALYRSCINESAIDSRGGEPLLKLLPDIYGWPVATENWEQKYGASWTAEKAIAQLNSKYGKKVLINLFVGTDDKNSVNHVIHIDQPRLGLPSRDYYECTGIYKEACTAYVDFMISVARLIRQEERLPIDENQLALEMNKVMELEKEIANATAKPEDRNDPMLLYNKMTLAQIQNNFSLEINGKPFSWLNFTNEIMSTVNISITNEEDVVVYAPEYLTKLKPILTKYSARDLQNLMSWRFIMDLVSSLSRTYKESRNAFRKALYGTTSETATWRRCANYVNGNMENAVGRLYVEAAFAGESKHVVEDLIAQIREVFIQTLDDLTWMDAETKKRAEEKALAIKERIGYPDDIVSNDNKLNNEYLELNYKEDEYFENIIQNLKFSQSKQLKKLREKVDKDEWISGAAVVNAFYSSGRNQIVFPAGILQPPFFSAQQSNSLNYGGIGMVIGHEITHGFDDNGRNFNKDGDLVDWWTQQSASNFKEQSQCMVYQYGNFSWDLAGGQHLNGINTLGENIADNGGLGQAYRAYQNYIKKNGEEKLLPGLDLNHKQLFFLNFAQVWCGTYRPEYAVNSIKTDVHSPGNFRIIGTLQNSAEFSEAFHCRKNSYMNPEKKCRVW

**Q.** What does the source list for Cc1cnc(C(=O)N[C@H](Cc2ccc(-c3cc(Cl)ccc3F)cc2)C[C@@H](O)C(=O)O)o1 [Compound 1, (2R,4R)-5-(5′-Chloro-2′-fluorobiphenyl-4-yl)-2-hydroxy-4-[(5-methyloxazole-2-carbonyl)amino]pentanoic Acid]?
**A.** AUC(0-t) ([1]; IV): 2780 ng·h/mL; AUC(0-t) ([1]; PO): 1660 ng·h/mL; bioavailability ([1]; oral, PO vs IV): ~60%; Ki [2]: 0.2 nM
